Reference: US12365696B2, “Small-molecule focal adhesion kinase (FAK) inhibitors” (DANA-FARBER CANCER INSTITUTE, INC., priority 2019, dated 2025)

Tests used:
Assay in all cases: KINOMEscan
Assay type in all cases: binding
PIK3CA(H1047Y) = PIK3CA(H1047Y) (Homo sapiens (Human), UniProt P42336, H1047Y); settings: 10000 nM, read-out: Percent Control
GCN2(Kin.Dom.2, S808G) = GCN2(Kin.Dom.2, S808G) (Homo sapiens (Human), UniProt Q9P2K8, S808G); settings: 10000 nM, read-out: Percent Control
GRK7 = GRK7 (Homo sapiens (Human), UniProt Q8WTQ7); settings: GRK7, 10000 nM; read-out: Percent Control
PLK2 = PLK2 (Homo sapiens (Human), UniProt Q9NYY3); settings: PLK2, 10000 nM; read-out: Percent Control
PRKD1 = PRKD1 (Homo sapiens (Human), UniProt Q15139); settings: PRKD1, 10000 nM; read-out: Percent Control
HASPIN = HASPIN (Homo sapiens (Human), UniProt Q8TF76); settings: 10000 nM, read-out: Percent Control
p38-delta = p38-delta (Homo sapiens (Human), UniProt O15264); settings: 10000 nM, read-out: Percent Control
CLK1 = CLK1 (Homo sapiens (Human), UniProt P49759); settings: CLK1, 10000 nM; read-out: Percent Control
EPHA1 = EPHA1 (Homo sapiens (Human), UniProt P21709); settings: EPHA1, 10000 nM; read-out: Percent Control
QSK = QSK (Homo sapiens (Human), UniProt Q9Y2K2); settings: 10000 nM, read-out: Percent Control
PRKX = PRKX (Homo sapiens (Human), UniProt P51817); settings: 10000 nM, read-out: Percent Control
TNIK = TNIK (Homo sapiens (Human), UniProt Q9UKE5); settings: 10000 nM, read-out: Percent Control
NEK5 = NEK5 (Homo sapiens (Human), UniProt Q6P3R8); settings: NEK5, 10000 nM; read-out: Percent Control
PIK3C2G = PIK3C2G (Homo sapiens (Human), UniProt O75747); settings: 10000 nM, read-out: Percent Control
HIPK4 = HIPK4 (Homo sapiens (Human), UniProt Q8NE63); settings: HIPK4, 10000 nM; read-out: Percent Control
DLK = DLK (Homo sapiens (Human), UniProt Q12852); settings: 10000 nM, read-out: Percent Control
NEK10 = NEK10 (Homo sapiens (Human), UniProt Q6ZWH5); settings: NEK10, 10000 nM; read-out: Percent Control
PKMYT1 = PKMYT1 (Homo sapiens (Human), UniProt Q99640); settings: PKMYT1, 10000 nM; read-out: Percent Control
MRCKA = MRCKA (Homo sapiens (Human), UniProt Q5VT25); settings: 10000 nM, read-out: Percent Control
PRKCH = PRKCH (Homo sapiens (Human), UniProt P24723); settings: 10000 nM, read-out: Percent Control
BMPR1A = BMPR1A (Homo sapiens (Human), UniProt P36894); settings: 10000 nM, read-out: Percent Control
SRPK2 = SRPK2 (Homo sapiens (Human), UniProt P78362); settings: SRPK2, 10000 nM; read-out: Percent Control
PFPK5(P. falciparum) = PFPK5(P. falciparum) (Plasmodium falciparum (isolate 3D7), UniProt P61075); settings: 10000 nM, read-out: Percent Control
CDK5 = CDK5 (Homo sapiens (Human), UniProt Q00535); settings: CDK5, 10000 nM; read-out: Percent Control
YANK1 = YANK1 (Homo sapiens (Human), UniProt Q8WU08); settings: YANK1, 10000 nM; read-out: Percent Control
CSNK1A1 = CSNK1A1 (Homo sapiens (Human), UniProt P48729); settings: CSNK1A1, 10000 nM; read-out: Percent Control
SIK2 = SIK2 (Homo sapiens (Human), UniProt Q9H0K1); settings: SIK2, 10000 nM; read-out: Percent Control
MLK2 = MLK2 (Homo sapiens (Human), UniProt Q02779); settings: MLK2, 10000 nM; read-out: Percent Control
BUB1 = BUB1 (Homo sapiens (Human), UniProt O43683); settings: BUB1, 10000 nM; read-out: Percent Control
LRRK2(G2019S) = LRRK2(G2019S) (Homo sapiens (Human), UniProt Q5S007, G2019S); settings: 10000 nM, read-out: Percent Control
PIM1 = PIM1 (Homo sapiens (Human), UniProt P11309); settings: PIM1, 10000 nM; read-out: Percent Control
PIKFYVE = PIKFYVE (Homo sapiens (Human), UniProt Q9Y2I7); settings: 10000 nM, read-out: Percent Control
STK33 = STK33 (Homo sapiens (Human), UniProt Q9BYT3); settings: STK33, 10000 nM; read-out: Percent Control
SYK = SYK (Homo sapiens (Human), UniProt P43405); settings: 10000 nM, read-out: Percent Control
NEK1 = NEK1 (Homo sapiens (Human), UniProt Q96PY6); settings: NEK1, 10000 nM; read-out: Percent Control

p38-delta, sequence (O15264 whole entry): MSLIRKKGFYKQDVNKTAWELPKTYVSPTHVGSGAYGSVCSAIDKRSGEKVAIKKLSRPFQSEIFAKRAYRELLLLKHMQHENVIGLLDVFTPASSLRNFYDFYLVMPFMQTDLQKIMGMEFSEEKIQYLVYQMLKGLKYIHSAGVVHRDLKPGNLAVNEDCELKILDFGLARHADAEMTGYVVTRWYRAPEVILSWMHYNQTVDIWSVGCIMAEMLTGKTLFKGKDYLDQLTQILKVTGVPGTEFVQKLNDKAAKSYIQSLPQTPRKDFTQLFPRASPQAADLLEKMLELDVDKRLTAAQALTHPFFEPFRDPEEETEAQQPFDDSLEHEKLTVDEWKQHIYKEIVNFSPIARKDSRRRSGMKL
PRKCH, sequence (P24723 whole entry): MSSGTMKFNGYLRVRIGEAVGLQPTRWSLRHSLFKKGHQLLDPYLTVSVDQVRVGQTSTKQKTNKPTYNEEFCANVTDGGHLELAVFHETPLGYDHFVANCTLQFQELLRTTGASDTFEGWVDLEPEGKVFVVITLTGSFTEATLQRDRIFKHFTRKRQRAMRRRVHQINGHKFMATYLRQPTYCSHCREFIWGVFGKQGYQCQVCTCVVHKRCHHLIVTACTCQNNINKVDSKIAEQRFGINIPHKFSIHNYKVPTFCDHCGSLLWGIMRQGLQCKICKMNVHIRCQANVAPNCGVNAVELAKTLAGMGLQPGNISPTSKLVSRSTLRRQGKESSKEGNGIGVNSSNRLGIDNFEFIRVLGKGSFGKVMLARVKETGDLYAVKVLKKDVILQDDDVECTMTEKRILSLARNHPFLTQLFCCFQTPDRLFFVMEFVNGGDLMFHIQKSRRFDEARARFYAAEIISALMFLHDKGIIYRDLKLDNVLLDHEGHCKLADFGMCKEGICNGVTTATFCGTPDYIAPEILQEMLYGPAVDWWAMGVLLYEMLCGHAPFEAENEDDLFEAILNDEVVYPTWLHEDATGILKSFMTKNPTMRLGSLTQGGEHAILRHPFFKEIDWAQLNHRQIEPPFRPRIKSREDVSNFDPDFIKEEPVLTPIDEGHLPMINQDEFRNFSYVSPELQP
GRK7, sequence (Q8WTQ7 whole entry): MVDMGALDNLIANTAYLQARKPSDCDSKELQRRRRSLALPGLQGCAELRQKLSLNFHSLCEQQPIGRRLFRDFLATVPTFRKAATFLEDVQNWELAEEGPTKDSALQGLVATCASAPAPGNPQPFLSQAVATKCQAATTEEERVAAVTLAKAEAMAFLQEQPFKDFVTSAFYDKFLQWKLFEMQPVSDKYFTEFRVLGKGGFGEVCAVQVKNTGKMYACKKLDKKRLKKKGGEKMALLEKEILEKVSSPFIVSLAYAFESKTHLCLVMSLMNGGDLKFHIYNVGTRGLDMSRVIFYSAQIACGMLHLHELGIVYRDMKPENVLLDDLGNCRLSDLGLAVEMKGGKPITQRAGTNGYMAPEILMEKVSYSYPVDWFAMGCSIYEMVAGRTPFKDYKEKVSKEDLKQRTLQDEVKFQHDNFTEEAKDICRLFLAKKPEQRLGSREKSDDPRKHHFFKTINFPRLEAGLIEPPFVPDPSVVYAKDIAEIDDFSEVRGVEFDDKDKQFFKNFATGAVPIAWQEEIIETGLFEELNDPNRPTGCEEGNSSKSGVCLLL
YANK1, sequence (Q8WU08 whole entry): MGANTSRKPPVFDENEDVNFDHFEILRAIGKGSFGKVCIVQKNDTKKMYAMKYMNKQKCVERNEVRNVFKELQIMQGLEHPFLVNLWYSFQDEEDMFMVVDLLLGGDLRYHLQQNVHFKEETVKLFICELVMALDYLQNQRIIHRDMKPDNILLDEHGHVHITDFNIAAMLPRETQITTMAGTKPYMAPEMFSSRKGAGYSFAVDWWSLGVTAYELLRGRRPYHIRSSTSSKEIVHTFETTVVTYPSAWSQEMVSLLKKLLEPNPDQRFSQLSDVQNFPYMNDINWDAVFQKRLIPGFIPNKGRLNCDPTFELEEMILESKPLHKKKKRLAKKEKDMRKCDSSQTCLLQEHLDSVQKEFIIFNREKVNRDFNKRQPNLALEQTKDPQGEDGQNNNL
NEK5, sequence (Q6P3R8 whole entry): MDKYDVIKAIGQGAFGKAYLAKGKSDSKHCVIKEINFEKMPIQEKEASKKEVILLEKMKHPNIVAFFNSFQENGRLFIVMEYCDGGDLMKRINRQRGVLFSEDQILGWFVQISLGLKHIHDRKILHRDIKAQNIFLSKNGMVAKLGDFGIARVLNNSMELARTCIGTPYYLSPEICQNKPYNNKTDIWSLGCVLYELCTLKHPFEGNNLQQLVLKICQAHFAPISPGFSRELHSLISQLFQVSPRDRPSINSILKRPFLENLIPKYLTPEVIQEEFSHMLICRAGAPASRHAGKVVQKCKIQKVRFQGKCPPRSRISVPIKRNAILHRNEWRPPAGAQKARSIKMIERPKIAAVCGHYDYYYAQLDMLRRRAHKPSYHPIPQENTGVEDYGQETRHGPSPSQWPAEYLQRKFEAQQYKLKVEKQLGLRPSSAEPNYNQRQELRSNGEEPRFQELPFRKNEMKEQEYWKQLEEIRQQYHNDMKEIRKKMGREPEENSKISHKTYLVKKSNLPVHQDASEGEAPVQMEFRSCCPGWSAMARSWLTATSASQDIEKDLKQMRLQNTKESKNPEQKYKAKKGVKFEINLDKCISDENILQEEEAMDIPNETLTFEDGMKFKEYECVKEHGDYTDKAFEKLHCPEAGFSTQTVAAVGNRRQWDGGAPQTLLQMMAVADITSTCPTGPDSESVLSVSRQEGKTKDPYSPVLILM
STK33, sequence (Q9BYT3 whole entry): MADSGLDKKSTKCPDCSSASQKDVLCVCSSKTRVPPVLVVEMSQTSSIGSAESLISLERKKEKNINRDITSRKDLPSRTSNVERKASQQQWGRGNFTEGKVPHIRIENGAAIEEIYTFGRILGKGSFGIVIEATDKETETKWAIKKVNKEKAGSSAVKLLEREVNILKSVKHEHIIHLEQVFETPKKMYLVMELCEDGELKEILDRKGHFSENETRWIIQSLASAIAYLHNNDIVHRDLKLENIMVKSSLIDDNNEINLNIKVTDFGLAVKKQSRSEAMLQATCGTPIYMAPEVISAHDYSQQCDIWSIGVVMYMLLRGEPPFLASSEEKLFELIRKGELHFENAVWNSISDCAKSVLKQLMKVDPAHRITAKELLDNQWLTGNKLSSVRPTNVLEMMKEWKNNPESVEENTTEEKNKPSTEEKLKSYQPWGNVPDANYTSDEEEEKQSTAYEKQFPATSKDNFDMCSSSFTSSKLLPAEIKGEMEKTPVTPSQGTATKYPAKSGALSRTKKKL
PIK3CA(H1047Y), sequence (P42336 whole entry H1047Y): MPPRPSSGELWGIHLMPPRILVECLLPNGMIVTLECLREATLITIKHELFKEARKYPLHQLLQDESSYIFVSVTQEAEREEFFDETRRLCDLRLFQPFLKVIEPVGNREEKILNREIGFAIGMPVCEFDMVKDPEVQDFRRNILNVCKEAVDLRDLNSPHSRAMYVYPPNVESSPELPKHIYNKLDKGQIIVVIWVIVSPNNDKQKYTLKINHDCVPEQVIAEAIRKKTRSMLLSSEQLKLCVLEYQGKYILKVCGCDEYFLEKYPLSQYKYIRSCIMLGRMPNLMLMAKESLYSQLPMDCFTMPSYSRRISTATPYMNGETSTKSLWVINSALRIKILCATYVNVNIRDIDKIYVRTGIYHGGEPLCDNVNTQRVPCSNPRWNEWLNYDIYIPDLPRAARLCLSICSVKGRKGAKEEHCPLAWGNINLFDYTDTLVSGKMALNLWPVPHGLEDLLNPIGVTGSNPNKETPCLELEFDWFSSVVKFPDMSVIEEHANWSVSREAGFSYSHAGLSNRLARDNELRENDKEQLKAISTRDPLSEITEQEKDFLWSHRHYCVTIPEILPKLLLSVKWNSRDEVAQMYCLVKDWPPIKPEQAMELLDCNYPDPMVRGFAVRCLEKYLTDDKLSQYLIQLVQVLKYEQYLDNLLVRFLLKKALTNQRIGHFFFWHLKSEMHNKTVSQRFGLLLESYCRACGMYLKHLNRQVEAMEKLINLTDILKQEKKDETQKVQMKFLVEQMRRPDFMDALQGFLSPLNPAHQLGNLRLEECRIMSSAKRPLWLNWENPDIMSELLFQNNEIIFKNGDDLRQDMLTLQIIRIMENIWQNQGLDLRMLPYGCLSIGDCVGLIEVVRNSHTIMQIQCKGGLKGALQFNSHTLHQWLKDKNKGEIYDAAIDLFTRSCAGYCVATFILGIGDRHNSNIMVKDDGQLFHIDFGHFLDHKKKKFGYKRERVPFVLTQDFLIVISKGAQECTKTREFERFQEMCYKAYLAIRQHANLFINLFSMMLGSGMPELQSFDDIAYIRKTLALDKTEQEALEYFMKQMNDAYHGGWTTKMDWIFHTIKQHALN
PKMYT1, sequence (Q99640 whole entry): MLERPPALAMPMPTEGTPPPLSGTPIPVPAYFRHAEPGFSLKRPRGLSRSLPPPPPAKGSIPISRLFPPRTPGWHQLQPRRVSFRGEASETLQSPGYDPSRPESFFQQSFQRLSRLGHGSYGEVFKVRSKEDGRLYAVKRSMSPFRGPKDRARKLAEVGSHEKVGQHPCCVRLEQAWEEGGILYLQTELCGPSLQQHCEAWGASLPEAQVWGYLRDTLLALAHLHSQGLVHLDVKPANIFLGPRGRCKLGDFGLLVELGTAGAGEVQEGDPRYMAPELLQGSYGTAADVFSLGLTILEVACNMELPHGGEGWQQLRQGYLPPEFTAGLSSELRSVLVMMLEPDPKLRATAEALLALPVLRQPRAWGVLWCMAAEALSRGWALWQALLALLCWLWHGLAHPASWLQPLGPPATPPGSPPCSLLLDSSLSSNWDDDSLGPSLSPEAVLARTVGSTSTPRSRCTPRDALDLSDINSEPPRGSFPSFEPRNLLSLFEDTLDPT

| Compound | remaining binding at 10 µM (PIK3CA(H1047Y)) [%] | remaining binding at 10 µM (GCN2(Kin.Dom.2, S808G)) [%] | remaining binding at 10 µM (GRK7) [%] | remaining binding at 10 µM (PLK2) [%] | remaining binding at 10 µM (PRKD1) [%] | remaining binding at 10 µM (HASPIN) [%] | remaining binding at 10 µM (p38-delta) [%] | remaining binding at 10 µM (CLK1) [%] | remaining binding at 10 µM (EPHA1) [%] | remaining binding at 10 µM (QSK) [%] | remaining binding at 10 µM (PRKX) [%] | remaining binding at 10 µM (TNIK) [%] | remaining binding at 10 µM (NEK5) [%] | remaining binding at 10 µM (PIK3C2G) [%] | remaining binding at 10 µM (HIPK4) [%] | remaining binding at 10 µM (DLK) [%] | remaining binding at 10 µM (NEK10) [%] | remaining binding at 10 µM (PKMYT1) [%] | remaining binding at 10 µM (MRCKA) [%] | remaining binding at 10 µM (PRKCH) [%] | also measured |
| --- | --- | --- | --- | --- | --- | --- | --- | --- | --- | --- | --- | --- | --- | --- | --- | --- | --- | --- | --- | --- | --- |
| COc1cc(N2CCC(N3CCN(C)CC3)CC2)ccc1Nc1ncc2c(n1)N(C)c1sc(C)nc1C(=O)N2 [Compound 3, 6-((2-methoxy-4-(4-(4-methylpiperazin-1-yl)piperidin-1-yl)phenyl)amino)-2,4-dimethyl-4,9-dihydro-10H-pyrimido[5,4-b]thiazolo[5,4-e][1,4]diazepin-10-one] | 91 | 88 | 97 | 100 | 78 | 96 | 82 | 90 | 54 | 100 | 96 | 94 | 97 | 69 | 82 | 90 | 100 | 90 | 98 | 89 | remaining binding at 10 µM (BMPR1A): 81%; remaining binding at 10 µM (SRPK2): 87%; remaining binding at 10 µM (PFPK5(P. falciparum)): 100%; remaining binding at 10 µM (CDK5): 71%; remaining binding at 10 µM (YANK1): 77%; remaining binding at 10 µM (CSNK1A1): 62%; remaining binding at 10 µM (SIK2): 86%; remaining binding at 10 µM (MLK2): 96%; remaining binding at 10 µM (BUB1): 100%; remaining binding at 10 µM (LRRK2(G2019S)): 100%; remaining binding at 10 µM (PIM1): 70%; remaining binding at 10 µM (PIKFYVE): 98%; remaining binding at 10 µM (STK33): 84%; remaining binding at 10 µM (SYK): 77%; remaining binding at 10 µM (NEK1): 78% |
| COc1cc(N2CCC(N3CCN(C)CC3)CC2)ccc1Nc1ncc2c(n1)N(C)c1sc(C)nc1C(=O)N2C [Compound 5, 6-((2-methoxy-4-(4-(4-methylpiperazin-1-yl)piperidin-1-yl)phenyl)amino)-2,4,9-trimethyl-4,9-dihydro-10H-pyrimido[5,4-b]thiazolo[5,4-e][1,4]diazepin-10-one] | 100 | 94 | 100 | 62 | 43 | 89 | 100 | 100 | 100 | 94 | 99 | 99 | 100 | 100 | 100 | 86 | 94 | 95 | 84 | 94 | remaining binding at 10 µM (BMPR1A): 97%; remaining binding at 10 µM (SRPK2): 89%; remaining binding at 10 µM (PFPK5(P. falciparum)): 97%; remaining binding at 10 µM (CDK5): 98%; remaining binding at 10 µM (YANK1): 100%; remaining binding at 10 µM (CSNK1A1): 97%; remaining binding at 10 µM (SIK2): 99%; remaining binding at 10 µM (MLK2): 76%; remaining binding at 10 µM (BUB1): 100%; remaining binding at 10 µM (LRRK2(G2019S)): 21%; remaining binding at 10 µM (PIM1): 97%; remaining binding at 10 µM (PIKFYVE): 60%; remaining binding at 10 µM (STK33): 10%; remaining binding at 10 µM (SYK): 89%; remaining binding at 10 µM (NEK1): 97% |
